Patent US4030886A, “Saturation analysis” (The Radiochemical Centre Limited, priority 1973, dated 1977)
Several values for one entry are separate records, joined by “and”; a condition that tells them apart may be missing. Identical values can stand only once.

Key:
[1] = test system: antiserum raised in rabbits against estriol-6-CMO-BSA; test: Assay for estriol using 2-(methylseleno)-ethylamine-Se75 conjugate of estriol-6CMO; format: binding, rabbit; conditions: 300 pg label, antiserum 1:200
Description: Into each assay tube was dispensed 0.1M phosphate buffer containing 5% human serum (pH 7.0; 200 μl), antiserum raised in rabbits against estriol-6-CMO-BSA and diluted 1 : 200 in 0.1M phosphate buffer containing 5% human serum (200 μl), and 2-(methylseleno)-Ethylamine-Se 75 conjugate of estriol-6-CMO (300 pg; 18 Ci/m mol).

[2] = molecular target: T1, transcortin (charcoal treated rabbit serum) (Oryctolagus cuniculus, UniProt P23775); test: Assay for cortisol using 2-methylseleno-1-dehydro-cortisol-21-acetate-Se75; format: binding; conditions: for Counts - BKG in 300 sec: 2.5 ng label
T1 construct: charcoal treated rabbit serum; from tissue; host or cells: rabbit serum, charcoal treated
T1 sequence (P23775 1-383): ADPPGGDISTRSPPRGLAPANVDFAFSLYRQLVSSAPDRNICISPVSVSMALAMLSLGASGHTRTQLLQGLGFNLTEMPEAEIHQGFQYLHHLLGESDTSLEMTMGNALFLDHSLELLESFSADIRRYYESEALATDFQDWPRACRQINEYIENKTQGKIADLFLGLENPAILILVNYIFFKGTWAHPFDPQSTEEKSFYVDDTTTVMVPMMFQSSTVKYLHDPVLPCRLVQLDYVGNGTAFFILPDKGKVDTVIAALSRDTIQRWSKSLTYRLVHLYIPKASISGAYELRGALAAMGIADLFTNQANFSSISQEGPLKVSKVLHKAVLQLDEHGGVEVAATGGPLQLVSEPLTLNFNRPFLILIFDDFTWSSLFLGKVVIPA
Description: (§1) Into each glass assay tube was dispensed glycine buffer containing 1% sodium azide (pH 9.0; 5.5 ml), charcoal treated rabbit serum (50 μl), bis-2,2'-(21-acetoxy-1-dehydrocortisol)-diselenide-Se 75 (2.3 ng, sp. activity ca 6 Ci/m atom), and Sephadex G25 (1 g). […] The tubes were capped and rotated at room temperature for 1 hour using a blood cell suspension mixer. After this time an aliquot (1 ml) of the supernatant liquid was withdrawn from each tube and counted for 300 seconds using an NE8311 gamma counter.
Into each glass assay tube was dispensed 0.05M phosphate buffer containing sodium azide 1% (pH 7.4; 6 ml), charcoal treated rabbit serum (50 μl), 2-methylseleno-1-dehydrocortisol-21-acetate-Se75) (2.5 ng; sp. activity ca 3 Ci/m atom), and Sephadex G25 (1 g).
The assay procedure was identical with that described above.

[3] = test system: Antisera raised in rabbits to testosterone 3-carboxymethyloxime-BSA; test: Radioimmunoassay for testosterone, antiserum dilution curve; format: binding, rabbit; conditions: for % Bound: 25pg label per assay tube
Description: Antisera were raised in rabbits to testosterone 3-carboxymethyloxime-BSA.
SE75 labelled 2-methylseleno-1-dehydrotestosterone (specific activity 15-20 Ci/mmol) was prepared by base catalysed hydrolysis of 2-methylseleno 1-dehydrotestosterone acetate which is described in our prior patent specification.
Antiserum dilution curves were set up in the usual way using antiserum and labelled testosterone as described above.
Typical figures for the antiserum dilution curves when 25pg labelled testosterone was used per assay tube are: […]

[4] = test system: antiserum raised to digoxin; test: Dilution curve for 3-methylselenodigoxigenin; format: binding; conditions: for Mean Count: 200 μl supernatant
Description: An antiserum dilution curve for 3-methylselenodigoxigenin-Se 75 (specific activity 16 Ci/m mol) in buffered saline (0.15M NaCl, 0.05M KH2 PO4, 0.1% Na N3, and 0.1% BSA) was made up at a concentration of 0.0228 n mol/ml. Dilutions of antiserum raised to digoxin were prepared in assay buffer at 1/50, 1/100, 1/200, 1/400, 1/500, 1/800, 1/1000. Tubes were set up in duplicate for total activity, blanks, and antiserum dilutions as follows: total activity, 50 μl ^75 Se compound and 250 μl assay buffers; blanks, 50 μl ^75 Se compound and 150 μl assay buffer; antiserum dilutions, 50 μl ^75 Se compound, 100 μl buffer and 50 μl antiserum. The tubes were incubated for 30 minutes after which 100 μl of charcoal (0.65 g Norit OL in 50 ml assay buffer + 1 gram BSA) was added to each tube except the totals. After 10 minutes incubation the tubes were centrifuged and a 200 μl sample of the supernatant was counted.

[5] = molecular target: T2, Transcortin from rabbit serum (Oryctolagus cuniculus, UniProt P23775); test: CPB assay for cortisol using Se-75 labelled bis-2,2'-(1-dehydrocorticosterone)-diselenide; format: binding
T2 construct: Transcortin from rabbit serum; from tissue; host or cells: rabbit serum
T2 sequence (P23775 1-383): T1 sequence (P23775 1-383)
Description: as §1
Se-75 labelled bis-2,2'-(1-dehydrocorticosterone)-diselenide was prepared by base hydrolysis of Se75-labelled bis-2,2'-(21-acetoxy-1-dehydrocorticosterone) diselenide which is described in our U.S. Ser. No. 426,695.
Using this radiolabelled material an assay for cortisol was set up as described in Example 1. Transcortin from rabbit serum was used as the source of binding protein and Sephadex G25 was used to separate protein free and bound material.
Typical results obtained using standard solutions of unlabelled cortisol to displace the labelled Δ^1 -corticosterone diselenide are: […]

[6] = molecular target: T1, transcortin (charcoal treated rabbit serum); test: Assay for cortisol - the use of β-mercaptoethanol in situ, tubes stored before use; format: binding
Description: as §1
Bis-2,2'-(21-acetoxy-1-dehydrocortisol)-diselenide-Se75 (100ng) in ethanol (10 ul) was added with stirring to a solution of β-mercaptoethanol (20 μl) in 0.05M phosphate buffer (pH 7.4; 1 ml). The mixture was left at room temperature for 20 minutes and then was added to a solution of 0.05M phosphate buffer (pH 7.4; 480 ml) containing sodium azide (1%) and charcoal treated rabbit serum (2 ml). After thorough mixing this solution was dispensed (in 6 ml aliquots) into glass assay tubes each containing Sephadex G25 (1 g). The tubes were capped and stored at room temperature until required, when the assay was then carried out as described above.

[7] = molecular target: T1, transcortin (charcoal treated rabbit serum); test: Assay for cortisol using Se-75 labelled bis-2,2'-(21-acetoxy-1-dehydrocortisol)-diselenide (competitive protein binding, Sephadex G25 separation); conditions: 2.3 ng label, 1 ml supernatant
Description: as §1

SMILES: C[75Se]CCNC(=O)CON=C1C[C@@H]2[C@H](CC[C@]3(C)[C@@H](O)[C@H](O)C[C@@H]23)c2ccc(O)cc21 [2-(methylseleno)-ethylamine - Se 75 conjugate of estriol-6-carboxymethyloxime]
- % of total counts bound minus blanks ([1]; 0 ng estriol added): 45.9%
- % of total counts bound minus blanks ([1]; 1.5 ng estriol added): 37.5%
- % of total counts bound minus blanks ([1]; 3.1 ng estriol added): 35.6%
- % of total counts bound minus blanks ([1]; 6.3 ng estriol added): 32.0%
- % of total counts bound minus blanks ([1]; 12.5 ng estriol added): 29.2%
- % of total counts bound minus blanks ([1]; 25 ng estriol added): 24.7%

SMILES: C[75Se]C1=C[C@@]2(C)C(=CC1=O)CC[C@@H]1[C@@H]2[C@@H](O)C[C@@]2(C)[C@H]1CC[C@]2(O)C(=O)COC(C)=O [2-methylseleno-1-dehydrocortisol-21-acetate-Se75]
- Counts - BKG in 300 sec ([2]; cortisol standard 0 μg/100 ml): 37447 and 37551
- Counts - BKG in 300 sec ([2]; cortisol standard 2 μg/100 ml): 36495 and 36981
- Counts - BKG in 300 sec ([2]; cortisol standard 4 μg/100 ml): 35381 and 34565
- Counts - BKG in 300 sec ([2]; cortisol standard 8 μg/100 ml): 31090 and 32353
- Counts - BKG in 300 sec ([2]; cortisol standard 16 μg/100 ml): 28011 and 28180
- Counts - BKG in 300 sec ([2]; cortisol standard 32 μg/100 ml): 24135 and 24340
- Counts - BKG in 300 sec ([2]; cortisol standard 64 μg/100 ml): 21601 and 21777
- dose-response curve of the cortisol assay ([2]; methylseleno- compared with the diseleno- derivative as label): steeper dose-response curve

SMILES: C[75Se]C1=C[C@@]2(C)C(=CC1=O)CC[C@H]1[C@@H]3CC[C@H](O)[C@@]3(C)CC[C@@H]12 [2-methylseleno-1-dehydrotestosterone]
- antiserum dilution curves compared with tritiated testosterone as label [3]: identical to those obtained when tritiated testosterone was used as label
- % Bound ([3]; antiserum dilution 1/10^2): 85%
- % Bound ([3]; antiserum dilution 1/10^3): 80%
- % Bound ([3]; antiserum dilution 1/10^4): 45%
- % Bound ([3]; antiserum dilution 1/10^5): 18%
- % Bound ([3]; antiserum dilution 1/10^6): 13%

SMILES: C[75Se]C1CC[C@@]2(C)[C@H](CC[C@@H]3[C@@H]2C[C@@H](O)[C@]2(C)[C@@H](C4=CC(=O)OC4)CC[C@]32O)C1 (some centres unmarked) [3-methylselenodigoxigenin-Se 75]
- % of Total Counts Bound ([4]; antiserum 1/50 dilution): 97.0%
- Mean Count ([4]; antiserum 1/50 dilution): 20750
- % of Total Counts Bound ([4]; antiserum 1/100 dilution): 80.6%
- Mean Count ([4]; antiserum 1/100 dilution): 17224
- % of Total Counts Bound ([4]; antiserum 1/200 dilution): 44.3%
- Mean Count ([4]; antiserum 1/200 dilution): 9489
- % of Total Counts Bound ([4]; antiserum 1/400 dilution): 26.8%
- Mean Count ([4]; antiserum 1/400 dilution): 5744
- % of Total Counts Bound ([4]; antiserum 1/500 dilution): 21.8%
- Mean Count ([4]; antiserum 1/500 dilution): 4659
- % of Total Counts Bound ([4]; antiserum 1/800 dilution): 15.3%
- Mean Count ([4]; antiserum 1/800 dilution): 3277
- % of Total Counts Bound ([4]; antiserum 1/1000 dilution): 12.2%
- Mean Count ([4]; antiserum 1/1000 dilution): 2602

SMILES: C[C@]12C[C@H](O)[C@H]3[C@@H](CCC4=CC(=O)C([75Se][75Se]C5=C[C@@]6(C)C(=CC5=O)CC[C@@H]5[C@@H]6[C@@H](O)C[C@]6(C)[C@@H](C(=O)CO)CC[C@@H]56)=C[C@@]43C)[C@@H]1CC[C@@H]2C(=O)CO [bis-2,2'-(1-dehydrocorticosterone)-diselenide]
- Counts - Bkgd ([5]; cortisol standard 2 μg/100 ml): 24700
- Counts - Bkgd ([5]; cortisol standard 4 μg/100 ml): 24100
- Counts - Bkgd ([5]; cortisol standard 8 μg/100 ml): 22800
- Counts - Bkgd ([5]; cortisol standard 16 μg/100 ml): 21800
- Counts - Bkgd ([5]; cortisol standard 32 μg/100 ml): 21200
- Counts - Bkgd ([5]; cortisol standard 64 μg/100 ml): 20700

SMILES: CC(=O)OCC(=O)[C@@]1(O)CC[C@H]2[C@@H]3CCC4=CC(=O)C([75Se][75Se]C5=C[C@@]6(C)C(=CC5=O)CC[C@@H]5[C@@H]6[C@@H](O)C[C@@]6(C)[C@H]5CC[C@]6(O)C(=O)COC(C)=O)=C[C@]4(C)[C@H]3[C@@H](O)C[C@@]21C [bis-2,2'-(21-acetoxy-1-dehydrocortisol)-diselenide-Se 75]
- Counts per 100 seconds (corrected for background) ([6]; cortisol standard 2 μg/100 ml, storage time 1 day): 12814 and 13112
- Counts per 100 seconds (corrected for background) ([6]; cortisol standard 2 μg/100 ml, storage time 28 days): 13007 and 12356
- Counts per 100 seconds (corrected for background) ([6]; cortisol standard 4 μg/100 ml, storage time 1 day): 13012
- Counts per 100 seconds (corrected for background) ([6]; cortisol standard 4 μg/100 ml, storage time 28 days): 11884
- Counts per 100 seconds (corrected for background) ([6]; cortisol standard 8 μg/100 ml, storage time 1 day): 12754 and 12709
- Counts per 100 seconds (corrected for background) ([6]; cortisol standard 8 μg/100 ml, storage time 28 days): 11486 and 11624
- Counts per 100 seconds (corrected for background) ([6]; cortisol standard 16 μg/100 ml, storage time 1 day): 11980 and 11825
- Counts per 100 seconds (corrected for background) ([6]; cortisol standard 16 μg/100 ml, storage time 28 days): 10930 and 10467
- Counts per 100 seconds (corrected for background) ([6]; cortisol standard 32 μg/100 ml, storage time 1 day): 10988 and 10876
- Counts per 100 seconds (corrected for background) ([6]; cortisol standard 32 μg/100 ml, storage time 28 days): 10078 and 10365
- Counts per 100 seconds (corrected for background) ([6]; cortisol standard 64 μg/100 ml, storage time 1 day): 9636
- Counts per 100 seconds (corrected for background) ([6]; cortisol standard 64 μg/100 ml, storage time 28 days): 9967
- Counts - Rkgd in 300 sec ([7]; cortisol standard 0 μg/100 ml): 34672 and 33573
- Counts - Rkgd in 300 sec ([7]; cortisol standard 2 μg/100 ml): 31116 and 32296
- Counts - Rkgd in 300 sec ([7]; cortisol standard 4 μg/100 ml): 31129 and 31389
- Counts - Rkgd in 300 sec ([7]; cortisol standard 8 μg/100 ml): 29987 and 30954
- Counts - Rkgd in 300 sec ([7]; cortisol standard 16 μg/100 ml): 29141 and 29356
- Counts - Rkgd in 300 sec ([7]; cortisol standard 32 μg/100 ml): 26842 and 25739
- Counts - Rkgd in 300 sec ([7]; cortisol standard 64 μg/100 ml): 23746 and 25895
